Data taken from patent US8946426B2, “Substituted bicyclic heterocyclic compounds as gamma secretase modulators” (Janssen Pharmaceuticals, Inc., priority 2009, dated 2015).

Key:
Aβtotal [1] = experiment: Method 1: Aβtotal sandwich ELISA in supernatant of SKNBE2 cells carrying APP 695-wild type (Tables 7a, 7b); format: cell-based
Outline: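 SKNBE2 cells expressing wild-type APP695 were exposed to compound for 18 Hours in Ultraculture with 1% glutamine. Aβtotal in the supernatant was read by 6E10-capture/biotinylated 4G8 sandwich ELISA with a fluorogenic peroxidase read-out, and WST-1 checked toxicity. IC50 came from a 4-parameter fit of percent inhibition or percent of control versus concentration.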

Aβ42 = experiment: In vivo efficacy: Aβ42 lowering in brain after single oral dose (Table 8); settings: mouse brain soluble fraction, ELISA, compared to untreated animals
Excerpt: (§1) To determine whether acute administration of an Aβ42 lowering agent would reduce Aβ42 levels in vivo, non-transgenic rodents, e.g. mice or rats were used. Alternatively, two to three month old Tg2576 mice expressing APP695 containing the “Swedish” variant can be used or a transgenic mouse model developed by Dr. Fred Van Leuven (K.U.Leuven, Belgium) and co-workers, with neuron-specific expression of a clinical mutant of the human amyloid precursor protein [V7171] (Moechars et al., 1999 J. Biol. Chem. 274, 6483). Young transgenic mice have high levels of Aβ in the brain but no detectable Aβ deposition. At approximately 6-8 months of age, the transgenic mice start to display spontaneous, progressive accumulation of β-amyloid (Aβ) in the brain, eventually resulting in amyloid plaques within the subiculum, hippocampus and cortex. Animals treated with the Aβ42 lowering agent were examined and compared to those untreated or treated with vehicle and brain levels of soluble Aβ42 and total Aβ would be quantitated by standard techniques, for example, using ELISA. Treatment periods varied from hours to days and were adjusted based on the results of the Aβ42 lowering once a time course of onset of effect could be established.
(§2) A typical protocol for measuring Aβ42 lowering in vivo is shown but it is only one of many variations that could be used to optimize the levels of detectable Aβ. For example, Aβ42 lowering compounds were formulated in 20% of Captisol® (a sulfobutyl ether of β-cyclodextrin) in water or 20% hydroxypropyl β cyclodextrin. The Aβ42 lowering agents were administered as a single oral dose or by any acceptable route of administration to overnight fasted animals. After four hours, the animals were sacrificed and Aβ42 levels were analysed.
(§3) Blood was collected by decapitation and exsanguinations in EDTA-treated collection tubes. Blood was centrifuged at 1900 g for 10 min at 4° C. and the plasma recovered and flash frozen for later analysis. The brain was removed from the cranium and hindbrain. The cerebellum was removed and the left and right hemisphere were separated. The left hemisphere was stored at −18° C. for quantitative analysis of test compound levels. The right hemisphere was rinsed with phosphate-buffered saline (PBS) buffer and immediately frozen on dry ice and stored at −80° C. until homogenization for biochemical assays.
(§4) Mouse brains were resuspended in 10 volumes of 0.4% DEA (diethylamine)/50 mM NaCl pH 10 (for non-transgenic animals) or 0.1% 3-[(3-cholamidopropyl)-dimethyl-ammonio]-1-propanesulfonate (CHAPS) in tris buffered saline (TBS) (for transgenic animals) containing protease inhibitors (Roche-11873580001 or 04693159000 per gram of tissue, e.g. for 0.158 g brain, add 1.58 ml of 0.4% DEA. All samples were sonicated for 30 sec on ice at 20% power output (pulse mode). Homogenates were centrifuged at 221.300×g for 50 min. The resulting high speed supernatants were then transferred to fresh tubes and were optionally further purified before the next step. A portion of the supernatant was neutralized with 10% 0.5 M Tris-HCl and this was used to quantify Aβtotal.
(§5) The obtained supernatants were purified with Water Oasis HLB reverse phase columns (Waters Corp., Milford, Mass.) to remove non-specific immunoreactive material from the brain lysates prior subsequent Aβ detection. Using a vacuum manifold, all solutions were passed through the columns at a rate of approximately 1 ml per minute, so the vacuum pressure was adjusted accordingly throughout the procedure. Columns were preconditioned with 1 ml of 100% MeOH, before equilibration with 1 ml of H2O. Non-neutralized brain lysates were loaded onto the columns. The loaded samples were then washed twice with the first wash performed with 1 ml of 5% MeOH, and the second wash with 1 ml of 30% MeOH. Finally, the Aβ was eluted from the columns and into 100×30 mm glass tubes, with a solution of 90% MeOH with 2% NH4OH. […]

Aβtotal [2] = experiment: In vivo efficacy: Aβtotal lowering in brain after single oral dose (Table 8); settings: mouse brain soluble fraction, ELISA, compared to untreated animals
Excerpt: as §1, §2, §3, §4, §5

[3] = Homo sapiens, SKNBE2, Table 7b, averaged IC50, non-linear regression of percentage of control vs log concentration, 4-parameter equation
[4] = Homo sapiens, Table 7a, SKNBE2 cells, compounds 18 h, XLfit 4-parameter fit of percent inhibition, top/bottom fixed to 100/0, hill slope 1
[5] = Table 7b, averaged IC50, non-linear regression of percentage of control vs log concentration, 4-parameter equation

| SMILES | IC50 (Aβtotal [1]; [3]) [µM] | IC50 (Aβtotal [1]; [4]) [µM] | IC50 (Aβtotal [1]; [5]) [µM] | Aβ42 (% Ctrl)_Mean (Aβ42) [% Ctrl] | Aβtotal (% Ctrl)_Mean (Aβtotal [2]) [% Ctrl] |
| --- | --- | --- | --- | --- | --- |
| COc1cc(Nc2cccc3c2nc(-c2ccc(F)cc2)n3C)ccc1-c1ocnc1C [Compound 12] | > 3 | > 1 |  | 56 | 101 |
| Cc1ncc(-c2ccc(Nc3nccc4c3nc(-c3ccc(F)cc3)n4C)cc2F)o1 [Compound 17] | > 3 |  |  | 106 | 109 |
| COc1cc(Nc2cc(C(F)(F)F)nn3cc(C)nc23)ccc1-c1cnc(C)o1 [Compound 195] |  |  | > 10 | 89 | 99 |
| Cc1ncoc1-c1ccc(Nc2cccc3c2nc(-c2ccc(F)cc2)n3C)nc1 [Compound 10] |  |  |  | 106 | 109 |
| COc1cc(Nc2cccc3c2nc(CCC(F)(F)F)n3C)ccc1-c1ocnc1C [Compound 11] |  |  |  | 91 | 99 |
| COc1cc(Nc2nc(C(F)(F)F)cn3cc(C)nc23)ccc1-c1cnc(C)o1 [Compound 170] |  |  |  | 99 | 99 |

Further lines, with some results ahead:

| IC50 (Aβtotal [1]; [3]) [µM] | IC50 (Aβtotal [1]; [4]) [µM] | IC50 (Aβtotal [1]; [5]) [µM] | SMILES | Aβ42 (% Ctrl)_Mean (Aβ42) [% Ctrl] | Aβtotal (% Ctrl)_Mean (Aβtotal [2]) [% Ctrl] |
| --- | --- | --- | --- | --- | --- |
|  |  | > 10 | COc1cc(Nc2cncc3c2nc(-c2ccc(F)cc2)n3C)ccc1-c1cnc(C)o1 [Compound 186] | 52 | 82 |
| > 3 | > 3 |  | COc1cc(Nc2cccc3c2nc(-c2ccc(F)cc2)n3C)ccc1-c1cnc(C)o1 [Compound 16] | 58 | 95 |
| > 3 |  |  | Cc1ncc(-c2ccc(Nc3cccc4c3nc(-c3ccc(F)cc3)n4C(C)C)cn2)o1 [Compound 18] | 54 | 94 |
|  |  | > 3 | COc1cccc(-c2nc3c(Nc4ccc(-c5cnc(C)o5)nc4)cc(F)cc3n2C)c1 [Compound 105] | 104 | 96 |
